In a melting point compilation (Tetko et al.; mined from patent text by program, amines drawn as free bases though some values may be those of a salt):

Row | SMILES | melting point [°C]
1 | C#CCN(C(=O)c1cnccc1C(F)(F)F)S(=O)(=O)c1cccc(Cl)c1 | 82 to 85
2 | COC(=O)CCc1cc(C(CC(C)C)NC(=O)Cc2ccc(NC(=O)Nc3ccccc3C)cc2)no1 (stereo not drawn) | 153 to 154
3 | COc1cc2c(cc1[N+](=O)[O-])N(CC(=O)N(C)C)C(=O)CN(CC(=O)N(C)C)C2 | 98
4 | NC(=O)c1cc([N+](=O)[O-])cnc1C(Br)Br | 156 to 158
5 | Nc1ccc2c(n1)CCO2 | 129 to 131
6 | CC(C)(C)c1cc(C=Nn2ccnc2)cc(C(C)(C)C)c1O | 171 to 174
7 | CNc1nn(C(=O)Cl)c(=O)n1C | 185
8 | [N-]=[N+]=NCn1cc(Cl)c(-c2cc(Cl)cc(Cl)c2)n1 | 74
9 | CCCCc1ccc(-c2ccc(-c3ccc(CC)cc3)cc2F)s1 | 37
10 | CC(C)n1nc(-c2c(-c3ccccc3)nn3ccc(N4CCCC4=O)cc23)ccc1=O | 266 to 267
11 | Cc1ccc(-n2ccc(C=O)c2)cc1 | 71 to 72
12 | CS(=O)(=O)Nc1cnc(NC(=O)[C@H](CC2CCCC2)c2ccc(S(C)(=O)=O)c(Cl)c2)cn1 | 108 to 110
13 | O=C(COCc1ccc(Cl)cc1Cl)c1ccccc1 | 83 to 85
14 | O=C(O)C1=Cc2ccc(Cl)c(Cl)c2OC1C(F)(F)F (stereo not drawn) | 220 to 221
15 | CCOC(=O)CC(=O)c1cc(F)c(F)c(Br)c1F | 85 to 88
16 | Cc1ccc(CC(CS)C(=O)Nc2cccc(C(=O)O)c2C)cc1 (stereo not drawn) | 194 to 196
17 | CCCCc1nc2c(N)nc3ccccc3c2n1CCCCSc1ccccc1 | 118 to 120
18 | Nc1cnn(-c2cccc(C(F)(F)F)c2)c(=O)c1-c1cccc(C(F)(F)F)c1 | 68 to 70
19 | CCOC(=O)CCCOc1ccc(C(C)=O)cc1 | 59 to 61
20 | Cc1nc(C(O)(Cn2cncn2)c2ccc(F)cc2)cs1 (stereo not drawn) | 120
21 | CN1C(=O)Cc2cc(Cl)ccc21 | 118 to 119
22 | CC(c1cc(F)cc(Br)c1O)c1cc(Cl)cc(C(C)c2cc(F)cc(Br)c2O)c1O (stereo not drawn) | 136
23 | CSc1nc(=O)[nH]cc1Cl | 254
24 | CC(C)(O)Cn1c(CO)nc2c(N)nc3cc(-c4cncc(CO)c4)cnc3c21 | 149 to 151
25 | Cc1cccc(-c2n[nH]cc2-c2ccc(F)c(-c3cc(F)c(S(N)(=O)=O)cc3F)c2)n1 | 122 to 125
26 | NCCN1CCN(c2ncc3ncnc(Nc4ccc(F)c(Cl)c4)c3n2)CC1 | 175 to 180

Row | SMILES | melting point [°C]
27 | CC(C)(C)c1ccc2c(O)ccnc2c1 | 207 to 209
28 | CCn1nc(C(F)(F)F)c(CS(=O)(=O)C2=NOC(C)(C)C2)c1OC(F)F | 98 to 100
29 | O=C(O)c1ccc(OCCCOc2ccccc2)cc1O | 161
30 | Cc1cc(CO)cc([N+](=O)[O-])c1 | 56.8 to 57.9
31 | O=c1[nH]nc2c3c(cccc13)Oc1ccc(COCCP(=O)(OCc3ccccc3)OCc3ccccc3)cc1-2 | 173 to 175
32 | Cc1cc(C#N)cc(C(=O)Nc2cccc(Cl)n2)n1 | 222
33 | CCC(C)C=C(C(=O)c1ccc(Cl)cc1Cl)n1cncn1 (stereo not drawn) | 101 to 104
34 | CCN(C(=O)c1nn(-c2ccc(Cl)cc2Cl)c(-c2ccc(Cl)cc2)c1C)N1CC=CCC1 | 109
35 | Cn1nc2ccccc2c1S(N)(=O)=O | 181 to 183
36 | CS(=O)(=O)C=Cc1ccccc1 | 77 to 79
37 | C=CCOC(=O)c1c(C)c(OC)cc(O[Si](C)(C)C(C)(C)C)c1C=O | 94 to 95
38 | CC(C)(C)C1=NN(c2ccc(C(=O)O)cc2)C(c2ccc(O)cc2)C1 (stereo not drawn) | 259
39 | CCC1CC(=O)N(Cc2ccc(C(=O)NC3CCCC3)cc2)N=C1c1ccc(OC)c(OC2CCCC2)c1 (stereo not drawn) | 73
40 | CC(C)C(NC(=O)c1ccccc1)C(O)C(F)(F)F (stereo not drawn) | 150
41 | COc1ccc(S(=O)(=O)n2ccc3ccnc(-c4cccs4)c32)cc1 | 112 to 114
42 | COP(C)(=O)C1CC(c2ccccc2)=NO1 (stereo not drawn) | 72 to 74
43 | CCOC(=O)C1=C(N)NC2=C(C(=O)CCC2)C1c1cccc(Br)c1 (stereo not drawn) | 255
44 | C=C=C(C)C1Oc2cccc(OC)c2-c2ccc3c(c21)C(C)=CC(C)(C)N3 (stereo not drawn) | 59 to 63
45 | N#Cc1c(-c2ccc(Cl)c(Cl)c2)[nH]c(C(F)(F)F)c1C(F)(F)F | 205 to 208
46 | C(=C\c1nc2ccccc2n1-c1ccccn1)/c1ccsc1 | 136
47 | Nc1ccc(C(=O)c2ncco2)c(Cl)c1 | 92 to 94
48 | O=c1ncc(Cl)cn1CSCc1ccccc1 | 186
49 | CC(=O)C1=C(O)c2ccc3ccccc3c2S(=O)(=O)N1 | 191 to 192
50 | Cc1cc(C)c(S(=O)(=O)N=[N+]=[N-])c(C)c1S(=O)(=O)N=[N+]=[N-] | 54 to 56
51 | CC(C)(O)Cc1c2c(nn1CCO)c(N)nc1ccccc12 | 196 to 198
52 | Cc1nc(NC(=O)OCC[Si](C)(C)C)cs1 | 101 to 103

Row | SMILES | melting point [°C]
53 | CSc1cc(C)nc(O)n1 | 165
54 | CC(=O)Nc1c(C(=O)c2cccc(C(N)=O)c2)[nH]c2cc(Cl)ccc12 | 243 to 247
55 | CC1(C)OCCC(=O)c2ccccc2NC1=O | 146 to 148
56 | CC1=CC(O)(c2nc3ccccc3s2)C=C(C)C1=O | 132
57 | O=C(CCc1cnoc1-c1ccccc1)Nc1ccc(CP(=O)(O)O)cc1 | 162 to 164
58 | Cc1c(Nc2c(C#N)cnc3scc(CO)c23)ccc2[nH]ccc12 | 230
59 | C/C(=C\c1ccc(C(=O)O)cc1)c1ccc2c(c1)N(C)CCN2C | 203 to 205
60 | O=C1CNC(=O)N1Cc1ccc2ccn(C3CCN(CCc4ccc(F)cc4)CC3)c2c1 | 156 to 157
61 | O=c1[nH]c2ccc3c(c2n(Cc2ccccc2)c1=O)CCCN3 | > 300
62 | CC(=O)NCC1CC(c2cc(F)c(-n3ccnc3)c(F)c2)=NO1 (single isomer, unassigned; (-)) | 168 to 169
63 | COc1cc2c(cc1OC)-c1c(-c3ccccc3)c(-c3cc(C)c(O)c(C)c3)c(C)n1CC2 | 210 to 214
64 | COc1ccc(CCOc2cncc(Cl)c2)cc1OC | 101 to 102
65 | CN(C)C(=O)c1cc(C(C)(C)C)c(O)c(C(C)(C)C)c1 | 173 to 174
66 | CCOC(=O)c1csc(Nc2nc(C(C)(C)C)c(O)c(C(C)(C)C)n2)n1 | 204 to 206
67 | O=C1Nc2cc(Cl)ccc2C1(Br)Br | 127 to 130
68 | COC(=O)OC1CCC2C3CCC4=CC(=O)CCC4(C)C3CCC12C (stereo not drawn) | 140 to 141
69 | Nc1c(Nc2cccc(-c3ccncc3)n2)c(=O)c1=O | > 340
70 | Cn1ncc(CCC(=O)O)c1-c1ccc(Cl)cc1 | 138 to 140
71 | Cc1nc2ccccn2c(=O)c1CCN1CCC(c2noc3cc(F)ccc23)CC1 | 170
72 | C(=C\c1cc(/C=C/c2ccc3cc[nH]c3c2)[nH]n1)/c1ccc(N2CCOCC2)cc1 | 236 to 238
73 | COc1cc(Cn2c(-c3ccc(OCc4ccccc4)cc3)c(C)c3cc(OCc4ccccc4)ccc32)ccc1OCCBr | 150 to 152
74 | Cc1[nH]c(=O)n(C2CCCCC2)c1-c1ccc(OCc2ccccc2)cc1 | 262
75 | CC(C)OCN1CCN(Cc2ccc(Cl)nc2)C1=NC#N | 85 to 87
76 | CNC(=O)c1cc(N2CCCC2)cc(C)c1C(N)=O | 160
77 | c1ccc(N=C(N=C(Nc2ccccc2)c2ccccc2)N2CCCC2)cc1 | 246 to 247
78 | COC[C@@H]1CN(c2ccc(OCc3ccccc3)cc2)C(=O)O1 | 101

Row | SMILES | melting point [°C]
79 | CCCCCC(=O)N1C(CCCCC)NC(=O)CC1C(=O)O (stereo not drawn) | 55 to 56
80 | CC1(C)C=C(c2ccccn2)c2cc(-c3ccccc3)ccc2OC1 | 115 to 120
81 | CN(CC(=O)O)c1cc(Br)ccc1[N+](=O)[O-] | 152 to 155
82 | CCCC(C=NNC(C)=O)c1ccc(Cl)cc1Cl (stereo not drawn) | 145 to 147
83 | O=C1C2CCCC2=Nc2ccccc2N1Cc1ccc2ccccc2c1 (stereo not drawn) | 164 to 167
84 | CCCCN1CCN(CCNC(=O)c2nn(C(C)C)c3ccccc23)CC1 | 82 to 84
85 | O=C(O)CCCc1ccc(C(=O)C=Cc2ccccc2)cc1 | 111 to 112
86 | COc1cc2ncnc(N3c4ccccc4CC3CO)c2cc1OC (stereo not drawn) | 146 to 147
87 | CC(=O)NC(C)(C)CNc1c(C)c(C)n2nnnc2c1[N+](=O)[O-] | 200 to 202
88 | CCOC(=O)c1cn(NCC=O)c2cc(-n3cccc3)c(F)cc2c1=O | 194 to 198
89 | Clc1ccc(-n2ccc(OCc3ccccc3Br)n2)cc1 | 45
90 | CC(C)(C)OC(=O)NOCC(=O)NNC(=O)c1cc(S(=O)(=O)O)cc(O)c1O | 148 to 150
91 | Cc1cc(C)cc(CNc2c(NC(C)(C)C)c(=O)c2=O)c1 | 246 to 248
92 | COCN1C(=O)C(=C/c2ccccc2)/C(=C\c2cc(OC)c(OC)c(OC)c2)C1=O | 127 to 128
93 | CSC(=S)NCCCN1CCN(c2ccccc2)CC1 | 75 to 79
94 | COc1cc(-c2ccc(C)cc2)c(C(C)=NOCc2ccc([N+](=O)[O-])cc2)cc1O | 106 to 109
95 | Cc1cc(COc2ccc(S(=O)(=O)NC[C@@H](C(=O)NO)N3CCCCC3)cc2)c2ccccc2n1 | 150
96 | COc1ccccc1CC(O)(c1ccccc1)C1CCN(CCCC(=O)c2ccc(C(C)(C)C)cc2)CC1 (stereo not drawn) | 118 to 120
97 | CCOP(=O)(COc1ccc(-c2c3ccccc3cc3sc4ccccc4c23)cc1)OCC | 129 to 130
98 | Oc1cnc2cc(C(F)(F)F)ccc2n1 | 260
99 | O=C(O)c1cccc(-c2ccn(-c3ccc(OC(F)F)cc3)n2)c1 | 182 to 183
100 | C=CCN1CC(=O)N(c2cc(C(=O)NCCCOc3ccc(C(C)(C)CC)cc3C(C)(C)CC)c(O)c3ccccc23)C1=S | 204 to 205
101 | Cc1ccc(C(=O)O)c([N+](=O)[O-])c1 | 156 to 157
102 | COC(=O)c1ccc(-c2nn(-c3ccc(C(N)=O)cc3)c3ccccc23)cc1 | 267 to 269
103 | CC1=Nc2ccccc2C=C(c2ccccc2)N1C | 144 to 145
